Entries after “also recorded” stand apart in the source; their conditions may differ.
Legend:
Format in all cases: physicochemical
[1] = Solubility of edaravone active pharmaceutical ingredient (EDVP) in liquids for dissolution
Method: The following liquids for dissolution (a) to (f) were used to prepare sample solutions, and the dissolution states of the edaravone active pharmaceutical ingredient in those solutions were investigated. Then, a liquid for dissolution that enabled to dissolve the edaravone active pharmaceutical ingredient was used to prepare a solution of phenylhydrazine, and the solution was measured using HPLC to check the peak shape of phenylhydrazine.
• (a) 0.1 mol/L hydrochloric acid test liquid • (b) 0.1 mol/L hydrochloric acid/acetonitrile (8:2) mixture • (c) 0.1 mol/L hydrochloric acid/acetonitrile (6:4) mixture • (d) 0.1 mol/L hydrochloric acid/acetonitrile (4:6) mixture • (e) 0.1 mol/L hydrochloric acid/acetonitrile (2:8) mixture • (f) 1 mol/L hydrochloric acid/acetonitrile (6:4) mixture Preparation of Sample Solutions
The edaravone active pharmaceutical ingredient weighed to about 0.10 g was dissolved in liquids for dissolution (a) to (f), and the solutions were adjusted exactly to 10 mLs to provide sample solutions.
Sample solutions were prepared with the following three liquids for dissolution. • 1. 0.1 mol/L hydrochloric acid/methanol (7:3) mixture • 2. 0.1 mol/L hydrochloric acid/methanol (6:4) mixture • 3. […]

[2] = as above; remark: listed apart in the source
[3] = Decomposition during storage of phenylhydrazine hydrochloride versus phenylhydrazine as standard substance (Test Example 1); details: compared with phenylhydrazine
[4] = Stability in solutions of 0.1 mol/L hydrochloric acid/methanol (5:5) mixture by HPLC (Example 3); details: 0.1 mol/L hydrochloric acid/methanol (5:5) compared with hydrochloric acid/acetonitrile (7:3) of Example 1
Description: The stability of phenylhydrazine and/or 3-methyl-1-phenyl-2-pyrazolin-5-one in a solution was investigated provided that an organic solvent in a liquid for dissolution was changed from acetonitrile to methanol.
In accordance with the conditions of Example 1 other than the liquids for dissolution, the stability of phenylhydrazine and/or 3-methyl-1-phenyl-2-pyrazolin-5-one in the solutions was investigated.
Therefore, 0.1 mol/L hydrochloric acid/methanol (5:5) mixture was used to prepare the addition sample solution (edaravone active pharmaceutical ingredient: 0.10111 g, phenylhydrazine: 5 μL), the standard solution (phenylhydrazine hydrochloride: 13.154 mg), and the sample solution (edaravone active pharmaceutical ingredient: 0.10275 g), and the stability of the solutions was investigated.
The results of the stability study of phenylhydrazine in the solution of 0.1 mol/L hydrochloric acid/methanol (5:5) mixture are shown in Table 7 and FIG. 7.

## CC1=NN(c2ccccc2)C(=O)C1 [EDVP, 3-methyl-1-phenyl-2-pyrazolin-5-one]
[1]; (a) 0.1 mol/L hydrochloric acid test liquid, about 0.10 g to 10 mL
  solubility of EDVP: insoluble
[1]; (b) 0.1 mol/L hydrochloric acid/acetonitrile (8:2) mixture, about 0.10 g to 10 mL
  solubility of EDVP: insoluble
[1]; (c) 0.1 mol/L hydrochloric acid/acetonitrile (6:4) mixture, about 0.10 g to 10 mL
  solubility of EDVP: soluble
[1]; (d) 0.1 mol/L hydrochloric acid/acetonitrile (4:6) mixture, about 0.10 g to 10 mL
  solubility of EDVP: soluble
[1]; (e) 0.1 mol/L hydrochloric acid/acetonitrile (2:8) mixture, about 0.10 g to 10 mL
  solubility of EDVP: soluble
[1]; (f) 1 mol/L hydrochloric acid/acetonitrile (6:4) mixture, about 0.10 g to 10 mL
  solubility of EDVP: soluble
[1]; liquid for dissolution 3: 0.1 mol/L hydrochloric acid/methanol (5:5) mixture
  solubility of EDVP: soluble
[2]; (g) 0.1 mol/L hydrochloric acid/acetonitrile (7:3) mixture, listed as edaravone active pharmaceutical ingredient
  solubility of EDVP: soluble; also recorded: dissolve completely

## Cl.NNc1ccccc1 [phenylhydrazine hydrochloride]
[3]
  decomposition during storage: less likely to decompose during storage

## NNc1ccccc1 [phenylhydrazine]
[4]
  decomposition of phenylhydrazine in the solution: tended to be faster decomposed
[2]; 0.1 mol/L hydrochloric acid/acetonitrile mixture (volume ratio 7:3)
  dissolution of phenylhydrazine: dissolve completely

From patent US12320793B2, “Analysis method of 3-methyl-1-phenyl-2-pyrazolin-5-one active pharmaceutical ingredient, treatment for amyotrophic lateral sclerosis, inhibition of progression of amyotrophic lateral sclerosis, and method of producing medicament containing 3-methyl-1-phenyl-2-pyrazolin-5-one active pharmaceutical …” (MITSUBISHI TANABE PHARMA CORPORATION, priority 2018, dated 2025)
